Earlier results on one substance are cited in patent publication US20110319467A1, “Absorption Enhancement of Statins and Omega Fatty Acids” (priority 2010, published 2011).

The conditions of the data set: single emulsifier.

For the substance Polyoxyethylene sorbitan monooleate, the HLB value entry was “about 15”.
